The record followed here is patent publication US20230286925A1, “PHENYL TRIAZOLE MLL1-WDR5 PROTEIN-PROTEIN INTERACTION INHIBITOR” (HUYABIO International, LLC, priority 2022, published 2023).

Read-outs that look alike come from different tables or passages of the source.

The target in one experiment is hERG (Homo sapiens (Human), UniProt Q12809). The experiment is described as follows: hERG assay (radioligand membrane binding). As for the experimental part: Procedure: Compounds were prepared and diluted with DMSO to make 0.2 mM and 0.02 mM. Reference compound was diluted with DMSO to make 8-point 4-fold serial dilution, starting at 0.2 mM. One μl of compounds/high control/low control was transferred to the assay plate according to the plate map. Next, and by following the plate map, 100 μl of membrane stocks was dispensed into the plate followed by adding 100 μl of radio ligand. Plates were then sealed and were incubated at RT for 1 hrs. In the meantime, soak the Unifilter-96 GF/C filter plates with 50 μl of 0.5% BSA per well for at least 0.5 hour at room temperature. When binding assays are completed, filter the reaction mixture through GF/C plates using Perkin Elmer Filtermate Harvester, and then wash each plate for 4 times with cold wash buffer. Next, Dry the filter plates for 1 hour at 50 degrees and seal the bottom of the filter plate wells using Perkin Elmer Unifilter-96 backing seal tape. Next, add 50 μl of Perkin Elmer Microscint 20 cocktail. Seal the top of the filter plate with Perkin Elmer TopSeal-A sealing film. Using Perkin Elmer MicroBeta2 Reader count ^3H trapped on filter. Finally, analyze the data with GraphPad Prism 5. Calculate the “Inhibition [% Control]” using the equation: % Inh=(1−Background subtracted Assay value/Background subtracted HC value)*100.
Chain of hERG (Q12809 whole entry): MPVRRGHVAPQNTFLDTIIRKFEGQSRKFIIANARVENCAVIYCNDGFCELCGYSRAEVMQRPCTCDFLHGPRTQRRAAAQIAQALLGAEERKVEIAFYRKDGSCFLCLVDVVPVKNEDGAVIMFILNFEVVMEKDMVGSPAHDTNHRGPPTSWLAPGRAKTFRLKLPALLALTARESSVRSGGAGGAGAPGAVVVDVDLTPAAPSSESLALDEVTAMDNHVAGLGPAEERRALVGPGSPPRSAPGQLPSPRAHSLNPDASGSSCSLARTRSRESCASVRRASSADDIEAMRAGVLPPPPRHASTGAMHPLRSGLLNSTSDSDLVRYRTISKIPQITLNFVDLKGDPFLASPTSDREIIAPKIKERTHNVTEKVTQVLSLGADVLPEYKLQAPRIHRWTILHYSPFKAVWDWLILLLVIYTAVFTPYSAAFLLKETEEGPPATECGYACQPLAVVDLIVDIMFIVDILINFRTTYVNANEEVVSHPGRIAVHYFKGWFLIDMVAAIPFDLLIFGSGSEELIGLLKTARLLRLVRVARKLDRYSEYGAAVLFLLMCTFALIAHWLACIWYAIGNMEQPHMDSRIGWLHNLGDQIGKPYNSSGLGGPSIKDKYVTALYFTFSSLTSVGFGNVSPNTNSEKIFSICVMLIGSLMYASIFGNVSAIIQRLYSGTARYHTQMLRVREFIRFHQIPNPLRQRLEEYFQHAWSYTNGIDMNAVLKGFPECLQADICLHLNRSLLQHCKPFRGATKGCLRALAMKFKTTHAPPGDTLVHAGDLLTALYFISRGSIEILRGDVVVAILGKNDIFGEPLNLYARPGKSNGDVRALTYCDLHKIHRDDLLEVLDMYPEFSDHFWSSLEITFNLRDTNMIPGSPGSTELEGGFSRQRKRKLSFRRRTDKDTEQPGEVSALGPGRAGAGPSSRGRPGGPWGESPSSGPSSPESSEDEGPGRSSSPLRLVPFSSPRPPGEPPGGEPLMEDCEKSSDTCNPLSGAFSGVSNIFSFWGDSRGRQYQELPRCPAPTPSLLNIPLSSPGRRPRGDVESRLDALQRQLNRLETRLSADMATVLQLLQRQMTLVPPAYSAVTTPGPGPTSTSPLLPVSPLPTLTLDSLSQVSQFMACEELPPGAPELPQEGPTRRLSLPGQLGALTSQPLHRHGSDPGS
The compound of the disclosure were tested in several hERG assays.

In experiment [1] the target is MLL1-WDR5 protein-protein interaction (Homo sapiens (Human), UniProt P61964). The experiment is described as follows: WDR5 TR-FRET assay of inhibition against MLL1-WDR5 protein-protein interaction. It is filed as binding. The protocol: WDR5 TR-FRET Assay Procedure: Stock compounds were transferred to the assay plate by Echo Liquid Handler. Reactions were performed in the assay buffer (1×PBS, 300 mM NaCl, 0.5 mM TCEP, 0.1% CHAPS) containing 5 nM WDR5 protein, 10 nM peptide (Ac-ARTEVHLRKS-[Ahx-Ahx] [C]-Alexa Fluor 488-NH2) and 0.25 nM Tb-anti His antibody (Tb-Ab) in 384-well white plate (PerkinElmer) with a final volume of 20 μl. Compounds were incubated with WDR5 protein for 30 min at room temperature. Plates were covered, protected from light and incubated for 60 min at room temperature after adding the peptide and Tb-Ab. EnVision Multimode Plate Reader (PerkinElmer) was used for the TR-FRET assay with excitation wavelength at 340 nm and emission wavelength at 495 and 520 nm. The ratio of the 520/495 wavelengths were used to assess the degree of the FRET signal. IC50 was calculated by fitting the inhibition data using XLfit software to sigmoidal dose-response model.
Biphenyl compound DDO-2084 was reported to be a small molecule inhibitor that can inhibit MLL1-WDR5 protein-protein interaction, reduce MLL1 enzyme catalytic activity, and downregulate the expression of Hox and Meis-1 genes (Eur. J. Med. Chem. 2016, 124, 480-489). DDO-2084 is used as a positive control compound.

For a further experiment, the system named is MV-411 cells. The experiment is described as follows: Anti-proliferative activity against leukemia cells (CellTiterGlo viability, 72 hrs). It is filed as cell-based. As for the experimental part:
Procedure: MV-411 or Molm-13 cells were seeded into 384 well plates at 2000 cells/well density in 50 uL according plate map and were allowed to naturally sediment by waiting about 30 min in Clean Bench. Next, plated cells were centrifuged for 1 min at 1000 rpm and the excess cells were transferred into the flasks for further culture. Cells in the assay plates were incubated (at least 4 hrs) at 37° C., 5% CO2 for next process followed by adding the compounds as the plate map indicated. The tests were performed in duplicates with treatment of compounds at 10 pts 3 fold titration in 384 well plates. Taxol was as positive control while DMSO as negative control. To rule out edge effect, the wells on the edge were not seeded and therefore one 384 well plate holds 13 compounds. Cells viability was measured 72 hrs after incubation with compounds and using CellTiterGlo (promega) viability assay according to manufactory's instruction to check the ATP production in each well.
Experiments on anti-proliferative activity against leukemia cells were conducted with some of the compounds of the invention.

The mark [2] stands for this setting: Table 7, read-out: WDR5 TR-FRET Assay (IC50 nM).
[3] abbreviates: MV4-11, MV-411 human acute monocytic leukemia cell, Table 7.
[4] abbreviates: WDR5 TR-FRET, 5 nM WDR5 protein, 10 nM peptide, read-out: MLL1-WDR5 PPI inhibitory activity.
Setting [5] is: MV4-11, MV-411 human acute monocytic leukemia cell, Table 6.

On hERG, `CCN(CC)C(=O)c1cn(-c2cc(NC(=O)c3cc(N)c(F)c(C)c3Cl)c(N3C[C@@H](C)N(C)[C@@H](C)C3)cc2F)nn1` [Compound 29, 1-(5-(5-amino-2-chloro-4-fluoro-3-methylbenzamido)-2-fluoro-4-((3S,5R)-3,4,5-trimethylpiperazin-1-yl)phenyl)-N,N-diethyl-1H-1,2,3-triazole-4-carboxamide] displayed an IC50 of 3.6 µM and an inhibitory constant (Ki) of 2.04 µM.

At hERG, `Cc1c(F)c([N+](=O)[O-])cc(C(=O)Nc2cc(-n3cc(C(=O)NCCCN4CCOCC4)nn3)ccc2N2CCN(C)CC2)c1Cl` [Example 18, 1-[3-[(2-chloro-4-fluoro-3-methyl-5-nitro-benzoyl)amino]-4-(4-methylpiperazin-1-yl)phenyl]-N-(3-morpholinopropyl)triazole-4-carboxamide] showed an IC50 of more than 10 µM.

At hERG, `CN1CCN(c2ccc(-n3cc(C(=O)NCCCN4CCOCC4)nn3)cc2NC(=O)c2ccc(F)c([N+](=O)[O-])c2)CC1` [Example 19, 1-(3-(4-fluoro-3-nitrobenzamido)-4-(4-methylpiperazin-1-yl)phenyl)-N-(3-morpholinopropyl)-1H-1,2,3-triazole-4-carboxamide] came in with an IC50 of more than 10 µM.

`CN1CCN(c2ccc(-n3cc(C(=O)NCCCN4CCOCC4)nn3)cc2NC(=O)c2ccc(F)c(C(F)(F)F)c2)CC1` [Example 21, 1-(3-(4-fluoro-3-(trifluoromethyl)benzamido)-4-(4-methylpiperazin-1-yl)phenyl)-N-(3-morpholinopropyl)-1H-1,2,3-triazole-4-carboxamide] came in with an IC50 on hERG of more than 10 µM.

As for `C[C@@H]1CN(c2ccc(-c3ccc(NC(=O)CC4CCCCC4)cc3)c(F)c2Nc2ncnc(Cl)c2N)C[C@H](C)N1C` [DDO-2213_015, N-(3′-((5-amino-6-chloropyrimidin-4-yl)amino)-2′-fluoro-4′-((3S,5R)-3,4,5-trimethylpiperazin-1-yl)-[1,1′-biphenyl]-4-yl)-2-cyclohexylacetamide], in experiment [1] (setting [2]), the IC50 came to 85.5 nM. The compound also came in with a GI50 in the experiment on MV-411 cells (setting [3]) of 4.14 µM.

`C[C@@H]1CN(c2cc(F)c(-c3ccnc(N(C)C)n3)cc2Nc2ncnc(Cl)c2N)C[C@H](C)N1C` [DDO-2213_028, 6-chloro-N4-(5-(2-(dimethylamino)pyrimidin-4-yl)-4-fluoro-2-((3S,5R)-3,4,5-trimethylpiperazin-1-yl)phenyl)pyrimidine-4,5-diamine]: in experiment [1] (setting [2]), the IC50 worked out at 51.8 nM. The compound also had a GI50 in the experiment on MV-411 cells (setting [3]) of more than 200 µM.

In the case of `Cc1c(F)c(N)cc(C(=O)Nc2cc(-n3cc(C(=O)NC4CCN(C)CC4)nn3)c(F)cc2N2C[C@@H](C)N(C)[C@@H](C)C2)c1Cl` [HYBI_087], the IC50 in experiment [1] (setting [4]) was 2.6 nM. Besides, the GI50 in the experiment with MV-411 cells (setting [5]) is more than 200 µM.

Turning to `Cc1c(F)ccc(C(=O)Nc2cc(-n3cc(C(=O)NCCCN4CCOCC4)nn3)c(F)cc2N2CCN(C)CC2)c1Cl` [HYBI_053], the IC50 in experiment [1] (setting [4]) stood at 19.4 nM. In the experiment on MV-411 cells (MV-411 human acute monocytic leukemia cell, Table 6), this compound displayed a GI50 of 5.69 µM.

On to `C[C@@H]1CN(c2cc(F)c(-c3ccnc(N4CCOCC4)n3)cc2Nc2ncnc(Cl)c2N)C[C@H](C)N1C` [DDO-2213_024, 6-chloro-N4-(4-fluoro-5-(2-morpholinopyrimidin-4-yl)-2-((3S,5R)-3,4,5-trimethylpiperazin-1-yl)phenyl)pyrimidine-4,5-diamine], for which the IC50 in experiment [1] (setting [2]) came to 15 nM. For the same compound, in the experiment with MV-411 cells (setting [3]), growth was halved (GI50) at 18.5 µM.

Take `CN1CCN(c2ccc(-n3cc(C(=O)NCCCN4CCOCC4)nn3)cc2NC(=O)c2cc(O)cc(C(F)(F)F)c2)CC1` [HYBI_046]: the IC50 in experiment [1] (setting [4]) was 271 nM. The same compound displayed a GI50 in the experiment on MV-411 cells (setting [5]) of 10.5 µM.

On to `Cc1c(F)c(N)cc(C(=O)Nc2cc(-n3cc(C(=O)N4CCN(C)CC4)nn3)c(F)cc2N2C[C@@H](C)N(C)[C@@H](C)C2)c1Cl` [HYBI_084], for which, in experiment [1] (setting [4]), the IC50 was 4.72 nM. The compound further yielded a GI50 in the experiment with MV-411 cells (setting [5]) of 3.35 µM.

With `Cc1c(F)c(N)cc(C(=O)Nc2cc(-n3cc(C(=O)N(C)CCCN4CCOCC4)nn3)ccc2N2CCN(C)CC2)c1Cl` [HYBI_019], the IC50 in experiment [1] (setting [4]) was found to be 20.4 nM. Besides, in the experiment with MV-411 cells (setting [5]), the GI50 was 27.1 µM.

`C[C@H]1CN(c2ccc(-c3ccc(C(=O)NCCN4CCOCC4)cc3)c(F)c2Nc2ncnc(Cl)c2N)CCN1C` [DDO-2213_012, (S)-3′-((5-amino-6-chloropyrimidin-4-yl)amino)-4′-(3,4-dimethylpiperazin-1-yl)-2′-fluoro-N-(2-morpholinoethyl)-[1,1′-biphenyl]-4-carboxamide]: the IC50 in experiment [1] (setting [2]) came out at 56.4 nM. Also, in the experiment on MV-411 cells (setting [3]), the GI50 came to 104 µM.

For `C[C@H]1CN(c2cc(F)c(-c3cnc(N4CCOCC4)nc3)cc2Nc2ncnc(Cl)c2N)CCN1C` [DDO-2213_020, (S)-6-chloro-N4-(2-(3,4-dimethylpiperazin-1-yl)-4-fluoro-5-(2-morpholinopyrimidin-5-yl)phenyl)pyrimidine-4,5-diamine], the IC50 in experiment [1] (setting [2]) was determined as 7.44 nM. In the experiment with MV-411 cells (setting [3]), this compound registered a GI50 of 5.21 µM.
